Source: the supplement of paper PMC5908809

Legend:
NK-YS (IL-2 2.5 ng/mL) [1] = assay: drug sensitivity score (DSS) (DSS units); higher = more sensitive; extreme values may be limits of the assay; conditions: 72 h
[2] = test system: normal primary NK cells, pool 3 (3 donors) (IL-2 2.5 ng/mL); assay: as above; conditions: 72 h
NKL (IL-2 2.5 ng/mL) [3] = assay: as above; conditions: 72 h
NK-92 (IL-2 2.5 ng/mL) [4] = assay: as above; conditions: 72 h
[5] = test system: normal primary NK cells, pool 1 (3 donors) (IL-2 2.5 ng/mL); assay: as above; conditions: 72 h
[6] = test system: normal primary NK cells, pool 1 (3 donors), resting (IL-2 0 ng/mL); assay: as above; conditions: 72 h
[7] = test system: normal primary NK cells, pool 2 (3 donors) (IL-2 2.5 ng/mL); assay: as above; conditions: 72 h
IMC-1 (IL-2 20 ng/mL) [8] = assay: as above; conditions: 72 h
YT (IL-2 2.5 ng/mL) [9] = assay: as above; conditions: 72 h
KHYG-1 (IL-2 2.5 ng/mL) [10] = assay: as above; conditions: 72 h
KAI3 (IL-2 2.5 ng/mL) [11] = assay: as above; conditions: 72 h
DERL-7 (IL-2 2.5 ng/mL) [12] = assay: as above; conditions: 72 h
SNK-6 (IL-2 2.5 ng/mL) [13] = assay: as above; conditions: 72 h
NK-YS (IL-2 2.5 ng/mL) [14] = assay: percent inhibition of viability; higher = more inhibition; conditions: 72 h
[15] = test system: normal primary NK cells, pool 3 (3 donors) (IL-2 2.5 ng/mL); assay: as above; conditions: 72 h
NKL (IL-2 2.5 ng/mL) [16] = assay: as above; conditions: 72 h
NK-92 (IL-2 2.5 ng/mL) [17] = assay: as above; conditions: 72 h
[18] = test system: normal primary NK cells, pool 1 (3 donors) (IL-2 2.5 ng/mL); assay: as above; conditions: 72 h
[19] = test system: normal primary NK cells, pool 1 (3 donors), resting (IL-2 0 ng/mL); assay: as above; conditions: 72 h
[20] = test system: normal primary NK cells, pool 2 (3 donors) (IL-2 2.5 ng/mL); assay: as above; conditions: 72 h
IMC-1 (IL-2 20 ng/mL) [21] = assay: as above; conditions: 72 h
YT (IL-2 2.5 ng/mL) [22] = assay: as above; conditions: 72 h
KHYG-1 (IL-2 2.5 ng/mL) [23] = assay: as above; conditions: 72 h
KAI3 (IL-2 2.5 ng/mL) [24] = assay: as above; conditions: 72 h
DERL-7 (IL-2 2.5 ng/mL) [25] = assay: as above; conditions: 72 h
SNK-6 (IL-2 2.5 ng/mL) [26] = assay: as above; conditions: 72 h
[27] = test system: normal NK cells expanded with K562-aAPC; assay: drug sensitivity score (DSS) (DSS units); higher = more sensitive; extreme values may be limits of the assay; conditions: 72 h; IL-2 2.5 ng/mL
Protocol: (§1)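 Drug sensitivity and resistance testing on K562-aAPC-expanded normal NK cells: 5 concentrations (10-fold steps over a 10,000-fold range), 72 h at 37 °C, viability by CellTiter-Glo normalised to DMSO and benzethonium chloride controls; DSS from the fitted curve.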

[28] = test system: normal NK cells expanded with K562-aAPC; assay: percent inhibition of viability; higher = more inhibition; conditions: 72 h, IL-2 2.5 ng/mL
Protocol: as §1

CC(C)c1c(C(=O)Nc2ccccc2)c(-c2ccccc2)c(-c2ccc(F)cc2)n1CC[C@@H](O)C[C@@H](O)CC(=O)O [Atorvastatin] (max concentration tested 10000 nM)
Conditions	drug sensitivity score
DERL-7 (IL-2 2.5 ng/mL) [12]	4
IMC-1 (IL-2 20 ng/mL) [8]	9.38
KAI3 (IL-2 2.5 ng/mL) [11]	3.95
KHYG-1 (IL-2 2.5 ng/mL) [10]	5.76
NK-92 (IL-2 2.5 ng/mL) [4]	2.7
NK-YS (IL-2 2.5 ng/mL) [1]	14
NKL (IL-2 2.5 ng/mL) [3]	17.2
SNK-6 (IL-2 2.5 ng/mL) [13]	2.14
YT (IL-2 2.5 ng/mL) [9]	9
[2]	0
[5]	0.79
[6]	2.71
[7]	1.06
[27]	0.92

percent inhibition of viability [%]
Conditions	1 nM	10 nM	100 nM	1000 nM	10000 nM
DERL-7 (IL-2 2.5 ng/mL) [25]	-2.58	-0.16	-3.51	6.56	54.2
IMC-1 (IL-2 20 ng/mL) [21]	-2.01	0.19	4.44	25.6	99.2
KAI3 (IL-2 2.5 ng/mL) [24]	-7.62	-6.46	-2.5	3.32	63.8
KHYG-1 (IL-2 2.5 ng/mL) [23]	1.48	-0.11	9.42	7.71	81.3
NK-92 (IL-2 2.5 ng/mL) [17]	-10.9	-15.5	4.4	-6.37	58.2
NK-YS (IL-2 2.5 ng/mL) [14]	0.24	1.58	11.9	64.8	103
NKL (IL-2 2.5 ng/mL) [16]	-16	-12.1	14.8	83.8	102
SNK-6 (IL-2 2.5 ng/mL) [26]	-3.12	4.06	1.93	0.27	41.9
YT (IL-2 2.5 ng/mL) [22]	0.23	1.11	4.51	22.4	99.1
[15]	-6.89	-6.08	-9.88	-12.8	4.72
[18]	-3.15	-14.1	-7.04	-6.72	27.1
[19]	-1.6	-6.76	-4.51	2.54	45.6
[20]	-7.16	-1.31	1.87	-2.86	29.2
[28]	-5.69	-0.26	-0.77	-4.84	28.3

CN(C)CCN1C(=O)c2cccc3cc(N)cc(c23)C1=O [Amonafide] (max concentration tested 10000 nM)
Conditions	drug sensitivity score
DERL-7 (IL-2 2.5 ng/mL) [12]	8.69
IMC-1 (IL-2 20 ng/mL) [8]	8.17
KAI3 (IL-2 2.5 ng/mL) [11]	10.4
KHYG-1 (IL-2 2.5 ng/mL) [10]	8.07
NK-92 (IL-2 2.5 ng/mL) [4]	9.91
NK-YS (IL-2 2.5 ng/mL) [1]	10
NKL (IL-2 2.5 ng/mL) [3]	9.52
SNK-6 (IL-2 2.5 ng/mL) [13]	8.74
YT (IL-2 2.5 ng/mL) [9]	7.63
[2]	6.87
[5]	4.95
[6]	6.59
[7]	6.19
[27]	9.65

percent inhibition of viability [%]
Conditions	1 nM	10 nM	100 nM	1000 nM	10000 nM
DERL-7 (IL-2 2.5 ng/mL) [25]	-0.77	2.31	-12.6	19.6	101
IMC-1 (IL-2 20 ng/mL) [21]	1.06	3.1	5.35	15.8	100
KAI3 (IL-2 2.5 ng/mL) [24]	12.7	9.96	3.38	35.1	103
KHYG-1 (IL-2 2.5 ng/mL) [23]	6.52	2.23	12.9	14.8	103
NK-92 (IL-2 2.5 ng/mL) [17]	17.3	3.38	20.4	29.9	103
NK-YS (IL-2 2.5 ng/mL) [14]	2.33	5.61	10.8	30.8	102
NKL (IL-2 2.5 ng/mL) [16]	-9.44	0.79	-4.03	33.1	89.8
SNK-6 (IL-2 2.5 ng/mL) [26]	21.2	8.85	20.2	23.6	99.5
YT (IL-2 2.5 ng/mL) [22]	3.19	6.52	7.92	11.9	104
[15]	5.44	-1.16	1.98	8.95	98.1
[18]	-3.82	-10.6	-8.88	-6.27	97.5
[19]	6.85	-15.8	-2.6	9.89	89.3
[20]	-8.57	-3.21	0.92	6.12	95
[28]	3.02	8.13	5.46	27.6	101
